Laboratory results as given in ChEMBL document CHEMBL1201862, “PubChem BioAssay data set” (2004).
Active and inactive are the calls of the source.

Legend:
[1] = general mammalian cell viability loss – activator set, cherry-pick, cytotoxicity control for miR-122 modulator project, dose response (AID 720690); type: functional, cell-based;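 further: HEK293T human cells scored for general mammalian cytotoxicity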
[2] = NIH3T3 cell viability loss – ATP luminescence, mouse fibroblasts, counter-screen, dose response (AID 2010); type: functional, cell-based;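 further: cells exposed to compound for about 90 hours before reading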
[3] = Trypanosoma cruzi growth suppression in host cells – NIH3T3 host cells, beta-gal luminescence, confirmation (AID 2044); type: functional, cell-based;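 further: intracellular parasites grown in NIH/3T3 mouse fibroblasts as host cells; luminescent beta-galactosidase reporter signal from transgenic T. cruzi replicating inside host cells; inhibitors lower the luminescence signal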
[4] = molecular target: T1, Rac GTPase-activating protein 1 (Homo sapiens, UniProt Q9H0H5); experiment: blockers of MgcRacGAP-driven Rac1 GTP hydrolysis – biochemical, ADP Hunter fluorescence, primary and confirmatory, confirmation (AID 624330); type: functional
T1 sequence (Q9H0H5 whole entry): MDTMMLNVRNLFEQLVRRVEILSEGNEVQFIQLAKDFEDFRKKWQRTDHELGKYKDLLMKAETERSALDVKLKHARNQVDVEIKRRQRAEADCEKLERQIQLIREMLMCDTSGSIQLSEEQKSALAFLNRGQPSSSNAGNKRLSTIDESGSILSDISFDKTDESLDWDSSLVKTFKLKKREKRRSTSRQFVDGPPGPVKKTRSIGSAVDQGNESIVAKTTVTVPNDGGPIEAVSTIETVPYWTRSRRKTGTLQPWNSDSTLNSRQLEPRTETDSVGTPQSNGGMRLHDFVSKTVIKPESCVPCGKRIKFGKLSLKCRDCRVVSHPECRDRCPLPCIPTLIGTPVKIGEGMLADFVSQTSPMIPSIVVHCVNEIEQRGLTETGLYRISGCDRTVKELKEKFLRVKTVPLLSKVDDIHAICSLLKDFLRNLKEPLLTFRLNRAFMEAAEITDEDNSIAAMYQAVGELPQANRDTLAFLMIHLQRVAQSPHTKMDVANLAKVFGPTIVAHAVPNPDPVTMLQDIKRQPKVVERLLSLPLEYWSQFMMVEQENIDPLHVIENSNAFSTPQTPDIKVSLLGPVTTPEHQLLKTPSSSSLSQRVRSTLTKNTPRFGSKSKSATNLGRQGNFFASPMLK

fMet-Leu-Phe receptor = fMet-Leu-Phe receptor (Homo sapiens, UniProt P21462); experiment: formyl peptide receptor binders – dose response (AID 519); type: functional
fMet-Leu-Phe receptor, sequence (P21462 whole entry): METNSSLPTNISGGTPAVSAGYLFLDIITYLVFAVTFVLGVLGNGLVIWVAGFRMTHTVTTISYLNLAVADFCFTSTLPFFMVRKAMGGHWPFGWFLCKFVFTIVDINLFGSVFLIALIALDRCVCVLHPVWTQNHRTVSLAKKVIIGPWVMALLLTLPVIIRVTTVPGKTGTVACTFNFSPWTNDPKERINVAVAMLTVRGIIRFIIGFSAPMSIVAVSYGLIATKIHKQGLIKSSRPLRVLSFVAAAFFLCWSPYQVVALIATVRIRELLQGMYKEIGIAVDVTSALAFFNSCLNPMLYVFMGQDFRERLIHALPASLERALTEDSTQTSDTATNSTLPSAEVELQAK

[5] = Luminescence Cell-Based Dose Confirmation HTS to Identify Inhibitors of Platelet Dense Granule Release. [Related pubchem assays: 1663 (Primary HTS), 1678 (Summary of Project)]; type: functional
[6] = viability loss in HepG2 hepatoma cells – cell-based, ATP luminescence, cherry-pick, activator set 2, cytotoxicity control, dose response (AID 1053143); type: functional
[7] = molecular target: Luciferin 4-monooxygenase (Photinus pyralis, UniProt P08659); experiment: inhibition of purified Photinus pyralis luciferase – biochemical, luminescence, dose response (AID 1891)
Luciferin 4-monooxygenase, sequence (P08659 whole entry): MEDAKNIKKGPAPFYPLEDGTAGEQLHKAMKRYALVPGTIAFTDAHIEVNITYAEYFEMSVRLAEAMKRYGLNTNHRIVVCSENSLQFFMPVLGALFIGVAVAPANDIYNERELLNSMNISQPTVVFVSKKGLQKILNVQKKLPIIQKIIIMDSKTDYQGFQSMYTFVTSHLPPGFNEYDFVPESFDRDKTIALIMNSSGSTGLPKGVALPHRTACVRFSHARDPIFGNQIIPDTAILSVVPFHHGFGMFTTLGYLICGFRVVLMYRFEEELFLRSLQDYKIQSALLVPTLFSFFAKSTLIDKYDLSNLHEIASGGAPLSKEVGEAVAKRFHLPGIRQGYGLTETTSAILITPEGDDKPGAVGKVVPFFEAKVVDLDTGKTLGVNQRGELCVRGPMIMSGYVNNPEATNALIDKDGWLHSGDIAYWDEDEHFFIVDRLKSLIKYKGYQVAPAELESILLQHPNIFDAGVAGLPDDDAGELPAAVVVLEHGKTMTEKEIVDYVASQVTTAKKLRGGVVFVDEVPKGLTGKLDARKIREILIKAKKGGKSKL

Aminopeptidase N = molecular target: T2, Aminopeptidase N (Plasmodium falciparum FcB1/Columbia, UniProt O96935); experiment: malaria alanyl aminopeptidase activity blockers – biochemical, fluorogenic H-Leu-NHMec substrate, 1536-well (AID 1445); set-up: species or system Plasmodium falciparum 3D7, 3D7
T2 sequence (O96935 whole entry): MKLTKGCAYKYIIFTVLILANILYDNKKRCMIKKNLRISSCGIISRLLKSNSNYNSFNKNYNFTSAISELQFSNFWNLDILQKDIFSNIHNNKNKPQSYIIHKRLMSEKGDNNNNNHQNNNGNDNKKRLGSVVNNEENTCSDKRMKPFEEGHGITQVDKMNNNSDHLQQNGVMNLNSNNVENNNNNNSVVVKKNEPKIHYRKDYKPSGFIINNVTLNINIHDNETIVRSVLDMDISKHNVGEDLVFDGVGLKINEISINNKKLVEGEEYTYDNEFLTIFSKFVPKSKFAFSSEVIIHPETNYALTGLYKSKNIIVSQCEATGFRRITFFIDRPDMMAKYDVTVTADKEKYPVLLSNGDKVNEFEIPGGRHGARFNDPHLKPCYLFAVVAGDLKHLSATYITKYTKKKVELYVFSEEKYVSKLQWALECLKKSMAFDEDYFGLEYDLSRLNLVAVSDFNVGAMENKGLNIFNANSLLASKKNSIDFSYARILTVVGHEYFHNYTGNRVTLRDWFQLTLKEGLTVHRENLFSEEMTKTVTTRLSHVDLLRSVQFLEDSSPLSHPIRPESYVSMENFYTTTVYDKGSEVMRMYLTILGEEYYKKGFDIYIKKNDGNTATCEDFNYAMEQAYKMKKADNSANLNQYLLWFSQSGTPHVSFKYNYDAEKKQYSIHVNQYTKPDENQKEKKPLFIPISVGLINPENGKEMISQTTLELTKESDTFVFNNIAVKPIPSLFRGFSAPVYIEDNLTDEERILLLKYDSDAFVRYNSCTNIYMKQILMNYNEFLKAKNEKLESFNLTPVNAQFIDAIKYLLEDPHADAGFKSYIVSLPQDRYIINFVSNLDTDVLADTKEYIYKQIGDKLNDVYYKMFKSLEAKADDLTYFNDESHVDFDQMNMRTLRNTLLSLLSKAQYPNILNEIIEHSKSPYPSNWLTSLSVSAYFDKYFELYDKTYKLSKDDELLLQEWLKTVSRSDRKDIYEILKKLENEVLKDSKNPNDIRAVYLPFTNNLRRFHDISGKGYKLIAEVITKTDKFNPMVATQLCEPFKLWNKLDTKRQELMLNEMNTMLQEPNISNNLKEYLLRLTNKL

cells = type: functional
[8] = microbe, parasite or virus in culture; type: functional; details: Mycobacterium tuberculosis
[9] = Vero E6 cell cytotoxicity, dose response, cytotoxicity control for non-replicating M. tuberculosis project, secondary assay (AID 492998); type: functional, VeroE6; details: Vero C1008
[10] = IC50 of Artemis nuclease activity blockers – biochemical, fluorescence intensity, dose response (AID 720701); type: functional;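 further: Artemis endonuclease enzyme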
[11] = reduction of Shn3 3'UTR-driven luciferase in osteoblasts – cell-based, Clone20 osteoblasts, firefly luciferase, cherry-picked, dose response (AID 624132); type: functional;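 further: firefly luciferase luminescence from reporter carrying the Shn3 3'UTR in osteoblasts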
[12] = Shn3 3'UTR reporter signal decrease – cell-based, Clone20 osteoblasts, firefly luciferase, cherry-pick, set 2, Schnurri-3 inhibitor project, dose response (AID 720490); type: functional;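 further: actives lower the luminescence signal as inhibitors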
[13] = non-specific 3'UTR reporter inhibition in Clone20-Shn3RL – cell-based, Renilla luciferase, cherry-picked, counter-screen for Shn3 inhibitor project, dose response (AID 624133); type: functional
[14] = EF1alpha-driven Renilla reporter with control 3'UTR suppression – Clone20-Shn3RL cells, dual-Glo, cherry-pick, set 2, counter-screen for Shn3 3'UTR targeting project, dose response (AID 720724); type: functional, cell-based; details: Dual-Go Shn3RL
[15] = A2780 cell killing – plate reader, dry powder samples, cytotoxicity control, dose response (AID 743046); type: functional, cell-based
[16] = OVCAR-3 cell viability loss – plate reader, dry powder samples, PAX8 inhibitor project, dose response (AID 743044); type: functional, cell-based
Paired box protein Pax-8 = Paired box protein Pax-8 (Homo sapiens, UniProt Q06710); experiment: PAX8 transcriptional activity inhibition in RMG-I – RMG-I cells, luciferase, cherry-pick, dose response (AID 687027); type: functional, cell-based;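 further: luciferase reporter driven by Pax8 target thyroperoxidase promoter measured by SteadyGlo luminescence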
Paired box protein Pax-8, sequence (Q06710 whole entry): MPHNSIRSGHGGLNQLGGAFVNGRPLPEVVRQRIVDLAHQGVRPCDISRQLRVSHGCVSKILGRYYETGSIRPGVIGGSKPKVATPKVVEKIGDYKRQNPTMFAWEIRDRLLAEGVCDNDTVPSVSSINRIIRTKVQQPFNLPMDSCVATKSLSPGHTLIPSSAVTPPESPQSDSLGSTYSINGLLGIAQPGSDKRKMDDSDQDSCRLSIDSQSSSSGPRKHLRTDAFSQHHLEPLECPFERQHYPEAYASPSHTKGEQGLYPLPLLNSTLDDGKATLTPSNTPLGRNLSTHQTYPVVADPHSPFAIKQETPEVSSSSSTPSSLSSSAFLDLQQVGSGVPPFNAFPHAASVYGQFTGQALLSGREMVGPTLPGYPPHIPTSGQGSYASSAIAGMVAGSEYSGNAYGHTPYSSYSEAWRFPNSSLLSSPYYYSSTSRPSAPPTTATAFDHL

[17] = OVCAR8 cell viability loss – plate reader, dry powder samples, PAX8 project, dose response (AID 743197); type: functional, cell-based; details: OVCAR-8
[18] = IGROV1 cell killing – plate reader, dry powder samples, PAX8 inhibitor project, dose response (AID 743043); type: functional, cell-based; details: IGROV-1
[19] = blockers of HIV-1 ZM109 envelope-driven cell-cell fusion – HeLa effector, CEM target cells, luciferase, cherry-pick, dose response (AID 652058); type: functional, cell-based;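 further: luciferase signal from HIV-1 Env mediated cell-cell fusion of effector and target cells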
[20] = blockers of HIV-1 envelope-mediated cell-cell fusion – cherry-pick, dose response (AID 652057); type: functional, cell-based
[21] = viability loss in CEM21 cells – cell-based, plate reader, dry powder, cytotoxicity control, dose response (AID 687026); type: functional
[22] = HIV-1 AD8 envelope cell-cell fusion blockers – cherry-pick, dose response (AID 652062); type: functional, cell-based;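 further: luciferase signal from cell-cell fusion driven by HIV-1 clade B AD8 Env; potency is for inhibitors of fusion seen as a drop in luminescence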
[23] = A Cell-Based Confirmatory Screen for Compounds that Inhibit VEEV, TC-83 (8).; type: functional
[24] = molecular target: Potassium channel subfamily K member 9 (Homo sapiens, UniProt Q9NPC2); experiment: KCNK9 flux blockade, concentration-response – cell-based, FluxOR thallium flux, selectivity assay for TASK1 inhibitor project, SAR follow-up (AID 652211); type: functional;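 further: potency is for inhibitors of the channel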
Potassium channel subfamily K member 9, sequence (Q9NPC2 whole entry): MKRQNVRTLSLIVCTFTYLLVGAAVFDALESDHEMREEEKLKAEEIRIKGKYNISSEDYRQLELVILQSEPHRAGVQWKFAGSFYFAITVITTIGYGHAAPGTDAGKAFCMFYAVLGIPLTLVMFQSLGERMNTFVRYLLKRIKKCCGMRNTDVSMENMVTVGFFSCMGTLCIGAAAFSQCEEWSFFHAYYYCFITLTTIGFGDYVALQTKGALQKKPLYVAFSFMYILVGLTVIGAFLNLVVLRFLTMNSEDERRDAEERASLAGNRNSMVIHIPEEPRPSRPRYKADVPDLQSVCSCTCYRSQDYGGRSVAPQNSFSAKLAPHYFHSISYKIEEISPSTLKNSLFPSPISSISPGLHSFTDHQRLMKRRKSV

[25] = molecular target: Potassium channel subfamily K member 3 (Homo sapiens, UniProt O14649); experiment: inhibition of human KCNK3 channel flux – CHO cells, FluxOR thallium flux, SAR follow-up (AID 652212); type: functional
Potassium channel subfamily K member 3, sequence (O14649 whole entry): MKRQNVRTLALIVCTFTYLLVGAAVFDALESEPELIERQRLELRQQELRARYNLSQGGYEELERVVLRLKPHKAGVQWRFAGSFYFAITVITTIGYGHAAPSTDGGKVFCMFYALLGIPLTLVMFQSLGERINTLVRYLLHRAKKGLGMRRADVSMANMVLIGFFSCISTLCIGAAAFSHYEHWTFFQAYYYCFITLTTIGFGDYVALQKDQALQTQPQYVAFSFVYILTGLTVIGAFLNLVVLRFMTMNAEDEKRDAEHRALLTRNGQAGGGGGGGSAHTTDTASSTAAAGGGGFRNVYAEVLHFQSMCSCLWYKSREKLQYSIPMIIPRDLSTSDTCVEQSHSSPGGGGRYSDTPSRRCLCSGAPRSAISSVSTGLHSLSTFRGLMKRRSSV

Mu-type opioid receptor = Mu-type opioid receptor (Homo sapiens, UniProt P35372); experiment: Late-stage results from the probe development effort to identify antagonists of OPRK1: luminescence-based cell-based dose response OPRM1 counterscreen.; type: functional
Mu-type opioid receptor, sequence (P35372 whole entry): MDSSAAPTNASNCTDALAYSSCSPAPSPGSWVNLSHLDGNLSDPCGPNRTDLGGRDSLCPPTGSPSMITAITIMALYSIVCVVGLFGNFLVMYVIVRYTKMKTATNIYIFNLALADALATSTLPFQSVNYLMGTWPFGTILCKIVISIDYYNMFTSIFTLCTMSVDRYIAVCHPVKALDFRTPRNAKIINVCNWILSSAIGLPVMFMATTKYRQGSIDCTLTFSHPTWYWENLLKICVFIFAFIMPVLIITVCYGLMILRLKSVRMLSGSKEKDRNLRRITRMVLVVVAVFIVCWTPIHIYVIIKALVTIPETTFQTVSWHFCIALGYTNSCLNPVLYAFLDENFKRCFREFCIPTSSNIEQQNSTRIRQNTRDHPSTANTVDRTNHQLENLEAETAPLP

[26] = molecular target: Delta-type opioid receptor (Homo sapiens, UniProt P41143); experiment: Late-stage results from the probe development effort to identify antagonists of OPRK1: fluorescence-based cell-based dose response OPRD1 counterscreen.; type: functional
Delta-type opioid receptor, sequence (P41143 whole entry): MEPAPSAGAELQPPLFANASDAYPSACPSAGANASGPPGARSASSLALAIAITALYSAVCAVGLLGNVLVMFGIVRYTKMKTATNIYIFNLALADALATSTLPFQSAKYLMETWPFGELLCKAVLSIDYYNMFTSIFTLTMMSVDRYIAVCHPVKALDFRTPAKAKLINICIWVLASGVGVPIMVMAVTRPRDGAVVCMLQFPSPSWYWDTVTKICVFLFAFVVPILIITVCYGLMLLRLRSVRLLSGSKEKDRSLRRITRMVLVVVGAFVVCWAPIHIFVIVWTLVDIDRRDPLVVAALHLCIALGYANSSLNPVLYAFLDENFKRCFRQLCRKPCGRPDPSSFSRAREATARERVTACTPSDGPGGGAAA

Vasopressin V1b receptor = Vasopressin V1b receptor (Homo sapiens, UniProt P47901); experiment: Late-stage results from the probe development effort to identify antagonists of arginine vasopressin receptor 1a (AVPR1a): fluorescence-based cell-based dose response AVPR1b inhibition counterscreen assay.; type: functional
Vasopressin V1b receptor, sequence (P47901 whole entry): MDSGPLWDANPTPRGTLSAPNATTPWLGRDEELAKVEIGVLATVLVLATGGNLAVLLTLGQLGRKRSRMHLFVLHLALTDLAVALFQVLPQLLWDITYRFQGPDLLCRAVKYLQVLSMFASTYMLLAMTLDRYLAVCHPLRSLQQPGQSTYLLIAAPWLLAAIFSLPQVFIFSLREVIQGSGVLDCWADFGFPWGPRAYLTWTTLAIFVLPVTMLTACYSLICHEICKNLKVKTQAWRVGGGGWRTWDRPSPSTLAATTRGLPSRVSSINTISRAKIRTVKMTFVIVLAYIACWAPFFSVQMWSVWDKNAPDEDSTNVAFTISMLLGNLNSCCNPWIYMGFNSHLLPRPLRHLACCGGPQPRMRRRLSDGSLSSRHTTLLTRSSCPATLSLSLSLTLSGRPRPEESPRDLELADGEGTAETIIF

Vasopressin V2 receptor = Vasopressin V2 receptor (Homo sapiens, UniProt P30518); experiment: Late-stage results from the probe development effort to identify antagonists of arginine vasopressin receptor 1a (AVPR1a): fluorescence-based cell-based dose response AVPR2 inhibition counterscreen assay.; type: functional
Vasopressin V2 receptor, sequence (P30518 whole entry): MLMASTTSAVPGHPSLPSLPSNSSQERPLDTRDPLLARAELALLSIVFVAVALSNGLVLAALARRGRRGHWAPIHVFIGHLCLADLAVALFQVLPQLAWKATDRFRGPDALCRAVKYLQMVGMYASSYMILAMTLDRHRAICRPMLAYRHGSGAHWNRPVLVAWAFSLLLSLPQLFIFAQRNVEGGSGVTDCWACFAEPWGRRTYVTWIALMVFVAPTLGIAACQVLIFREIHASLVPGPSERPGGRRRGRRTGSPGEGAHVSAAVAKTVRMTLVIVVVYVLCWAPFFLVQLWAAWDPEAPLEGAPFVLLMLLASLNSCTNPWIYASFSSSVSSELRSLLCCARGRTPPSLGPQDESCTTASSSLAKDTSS

[27] = Late-stage results from the probe development effort to identify antagonists of arginine vasopressin receptor 1a (AVPR1a): fluorescence-based cell-based dose response OXTR inhibition counterscreen assay.; type: functional
[28] = Late-stage results from the probe development effort to identify antagonists of arginine vasopressin receptor 1a (AVPR1a): fluorescence-based cell-based dose response AVPR1a inhibition assay.; type: functional
[29] = viability loss in MITF-independent A375 cells – cell-based, CellTiter-Glo luminescence, dry powder, set 2, counter-screen for MITF inhibitor project, dose response (AID 624489); type: functional; details: A-375;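 further: actives are compounds lowering A375 viability meaning general cytotoxicity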
[30] = cytotoxicity in MITF-independent A375 cells – cell-based, CellTiter-Glo luminescence, dry powder, set 4, counter-screen for MITF inhibitor project, dose response (AID 624364); type: functional; details: A-375;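 further: A375 melanoma cells are MITF independent so this is a counter screen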
[31] = molecular target: NAD-dependent protein deacylase sirtuin-5, mitochondrial (Homo sapiens, UniProt Q9NXA8); experiment: blockers of sirtuin-5 peptide desuccinylation – biochemical, fluorescence imaging, cherry-pick, set 6, dose response (AID 720597)
NAD-dependent protein deacylase sirtuin-5, mitochondrial, sequence (Q9NXA8 whole entry): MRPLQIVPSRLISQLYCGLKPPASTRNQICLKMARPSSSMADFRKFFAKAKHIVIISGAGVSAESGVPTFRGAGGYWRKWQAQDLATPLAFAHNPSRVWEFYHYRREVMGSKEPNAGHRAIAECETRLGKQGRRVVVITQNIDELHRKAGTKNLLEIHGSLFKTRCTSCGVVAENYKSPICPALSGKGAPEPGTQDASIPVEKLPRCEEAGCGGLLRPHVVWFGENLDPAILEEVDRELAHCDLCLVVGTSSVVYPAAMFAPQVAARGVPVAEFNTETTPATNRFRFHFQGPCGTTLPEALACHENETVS

[32] = blockers of FN fibrillogenesis by fibroblasts – AH1F cells, Alexa488-FN fluorescence, cherry-picks, dose response (AID 1035475); type: functional, cell-based

With `O=C(Nc1nc(-c2cc3ccccc3o2)cs1)c1ccc(S(=O)(=O)N2CCCC2)cc1` the AC50 [1] was 10.9 µM (active), the EC50 [2] was > 30 µM (not active) and the EC50 [3] was 4.21 µM (active).

With `CCCN=C(S)Nc1ccc(Nc2ccccc2)cc1` the IC50 [4] was 82.4 µM (active) and the Ki (fMet-Leu-Phe receptor) was > 66.7 µM (inactive).

In the case of `Cc1ccccc1Nc1nc(N)c2ccccc2n1`, the EC50 [5] is reported as 3.1 µM (active), the AC50 [6] is reported as 26 µM (active) and the EC50 [7] is reported as 1.26 µM (active).

In the case of `Cc1cc(Cl)ccc1OCCCC(=O)NO`, the IC50 (Aminopeptidase N) is reported as 43.1 µM (active), the IC50 (cells) is reported as 27.9 µM (active) and the CC50 [8] is reported as 29.4 µM (active). For the same molecule, the CC50 [9] was 18.9 µM (active) and the IC50 [10] was 1.59 µM (active).

With `CCOc1ccc(Cn2nnc(C(=O)Nc3cc(OC)cc(OC)c3)c2N)cc1` the AC50 [11] was 5.3 µM (active), the AC50 [12] was 9.37 µM (active) and the AC50 [13] was 26.9 µM (active). The AC50 [14] was 38.5 µM (active).

With `C[C@@H]1CCCCO[C@@H](CN(C)Cc2ccccc2)[C@H](C)CN([C@@H](C)CO)C(=O)c2cc(NC(=O)Nc3ccc(C(F)(F)F)cc3)ccc2O1` the AC50 [15] was 44.6 µM (active), the AC50 [16] was 23.1 µM (active) and the AC50 (Paired box protein Pax-8) was 10.8 µM (active). For the same molecule, the AC50 [17] was 42.2 µM (active) and the AC50 [18] was 47.9 µM (active).

In the case of `Cc1ccc(S(=O)(=O)Nc2cccc3c2O[C@@H](CN(C)Cc2ccc(Cl)c(Cl)c2)[C@@H](C)CN([C@H](C)CO)C3=O)cc1`, the AC50 [19] is reported as 2.75 µM (active), the AC50 [20] is reported as 12.1 µM (active) and the AC50 [21] is reported as 19.2 µM (active). For the same molecule, the AC50 [22] was 65.4 µM (active).

With `CN1CCN(C)/C(=N/c2ccc(C#N)cc2C(=O)Nc2cccc(F)c2)C1` the IC50 [23] was 0.84 µM (active).

With `CCOc1cccc(NC(=O)c2cccc(NC(=O)C3CCCC3)c2)c1` the IC50 [24] was 4.07 µM (active) and the IC50 [25] was 0.491 µM (active).

With `COC(=O)c1cc(Br)cnc1N1CCC(N[C@@H]2CCCC[C@H]2O)CC1` the IC50 (Mu-type opioid receptor) was 2.8 µM (active) and the IC50 [26] was 3.36 µM (active).

With `N#Cc1cccnc1N1CCC(C(=O)N(CC2CC2)c2ccc(Cl)cc2)CC1` the IC50 (Vasopressin V1b receptor) was 14 µM (inactive), the IC50 (Vasopressin V2 receptor) was 24.4 µM (inactive) and the IC50 [27] was 6.8 µM (active). For the same molecule, the IC50 [28] was 0.067 µM (active).

For `O=C1C(Nc2ccccc2)=C(N2CCSCC2)C(=O)c2ccccc21`, the AC50 [29] was 69.3 µM (active) and the AC50 [30] was > 70 µM (inactive).

For `C[C@@H]1CN([C@@H](C)CO)C(=O)c2cc(NS(C)(=O)=O)ccc2O[C@@H](C)CCCCO[C@H]1CN(C)Cc1ccc(C(F)(F)F)cc1`, the AC50 [31] was > 30 µM (inactive).

In the case of `C[C@H]1CN([C@@H](C)CO)C(=O)c2cc(NC(=O)CCCN(C)C)ccc2O[C@@H]1CN(C)Cc1ccc(-c2ccccc2)cc1`, the AC50 [32] is reported as > 70 µM (inactive).
